The values that follow come from patent US20100317647A1 (priority 2009, published 2010).

human Cat S, sequence (P25774 115-331): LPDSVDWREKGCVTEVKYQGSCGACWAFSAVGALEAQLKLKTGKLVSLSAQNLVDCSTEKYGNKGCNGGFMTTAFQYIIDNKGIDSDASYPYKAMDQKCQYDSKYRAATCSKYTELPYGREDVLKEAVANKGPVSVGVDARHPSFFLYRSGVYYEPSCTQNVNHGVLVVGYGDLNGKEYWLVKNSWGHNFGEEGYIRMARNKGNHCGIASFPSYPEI

This assay concerns the target human Cat S (Homo sapiens, UniProt P25774). Put plainly: Cathepsin enzyme inhibition assay (fluorogenic peptide substrate cleavage). It is filed as biochemical. The note with it: human Cat S 1 nM; substrate Z-Val-Val-Arg-AMC 20 μM; pH 6.5; fluorescence over 20 minutes. In short, it runs like this:
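IC50 values derived from fluorescence increase (ex 360 nm, em 465 nm) monitored for 20 minutes after substrate addition. Enzyme held at 1 nM with 20 μM Z-Val-Val-Arg-AMC, in pH 6.5 potassium phosphate buffer containing DTT, EDTA and Triton X-100.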
The molecule `Cc1cc(-c2ccc(S(=O)(=O)[C@H]3C[C@@H](OC(C)C)[C@H](C(=O)NC4(C#N)CC4)C3)c(C(F)(F)F)c2)ccn1` (racemic) [Example 140, (1R,2R,4R) and (1S,2S,4S)-2-Isopropoxy-4-[4-(2-methyl-pyridin-4-yl)-2-trifluoromethyl-benzenesulfonyl]-cyclopentanecarboxylic acid (1-cyano-cyclopropyl)-amide] returned an IC50 of 0.2 nM. Then `Cc1noc(C)c1-c1ccc(S(=O)(=O)[C@H]2C[C@@H](OC(C)C)[C@H](C(=O)NC3(C#N)CC3)C2)c(C(F)(F)F)c1` (racemic) [Example 141, (1R,2R,4R) and (1S,2S,4S)-4-[4-(3,5-Dimethyl-isoxazol-4-yl)-2-trifluoromethyl-benzenesulfonyl]-2-isopropoxy-cyclopentanecarboxylic acid (1-cyano-cyclopropyl)-amide], with 0.2 nM. Then `CC(C)O[C@@H]1C[C@H](S(=O)(=O)c2ccc(-c3cnn(C)c3)cc2C(F)(F)F)C[C@H]1C(=O)NC1(C#N)CC1` (racemic) [Example 142, (1R,2R,4R) and (1S,2S,4S)-2-Isopropoxy-4-[4-(1-methyl-1H-pyrazol-4-yl)-2-trifluoromethyl-benzenesulfonyl]-cyclopentanecarboxylic acid (1-cyano-cyclopropyl)-amide], with 0.2 nM; and `CO[C@@H]1C[C@H](S(=O)(=O)c2ccc(-n3cc(C)cn3)cc2Cl)C[C@H]1C(=O)NC1(C#N)CC1` (racemic) [Example 149, (1R,2R,4R) and (1S,2S,4S)-4-[2-Chloro-4-(4-methyl-pyrazol-1-yl)-benzenesulfonyl]-2-methoxy-cyclopentanecarboxylic acid (1-cyano-cyclopropyl)-amide], with 1.93 nM; and `Cc1ccc(CO[C@@H]2C[C@H](S(=O)(=O)c3ccccc3Cl)C[C@H]2C(=O)NC2(C#N)CC2)cc1` (racemic) [Example 150, (1R,2R,4R) and (1S,2S,4S)-4-(2-Chlorophenylsulfonyl)-N-(1-cyanocyclopropyl)-2-(4-methylbenzyloxy)cyclopentanecarboxamide], with 4.15 nM. Then `N#CC1(NC(=O)[C@@H]2C[C@@H](S(=O)(=O)c3ccccc3Cl)C[C@H]2OCc2ccc(Cl)cc2C(F)(F)F)CC1` (racemic) [Example 151, (1R,2R,4R) and (1S,2S,4S)-2-(4-Chloro-2-(trifluoromethyl)benzyloxy)-4-(2-chlorophenylsulfonyl)-N-(1-cyanocyclopropyl)cyclopentanecarboxamide], with 2.99 nM. Consider `N#CC1(NC(=O)[C@@H]2C[C@@H](S(=O)(=O)c3ccccc3Cl)C[C@H]2OCc2ccc(Br)cc2)CC1` (racemic) [Example 154, (1R,2R,4R) and (1S,2S,4S)-2-(4-Bromo-benzyloxy)-4-(2-chloro-benzenesulfonyl)-cyclopentanecarboxylic acid (1-cyano-cyclopropyl)-amide], for which the IC50 stood at 7.55 nM. The figure for `CO[C@@H]1C[C@H](S(=O)(=O)c2ccc(N3CCN(C)CC3)cc2C(F)(F)F)C[C@H]1C(=O)NC1(C#N)CC1` (racemic) [Example 161, (1R,2R,4R) and (1S,2S,4S)-2-Methoxy-4-[4-(4-methyl-piperazin-1-yl)-2-trifluoromethyl-benzenesulfonyl]-cyclopentanecarboxylic acid (1-cyano-cyclopropyl)-amide] is 1.5 nM; for `N#CC1(NC(=O)[C@@H]2C[C@@H](S(=O)(=O)c3ccc(Br)cc3C(F)(F)F)C[C@H]2OC2CCOCC2)CC1` (racemic) [Example 169, (1R,2R,4R) and (1S,2S,4S)-4-(4-Bromo-2-trifluoromethyl-benzenesulfonyl)-2-(tetrahydro-pyran-4-yloxy)-cyclopentanecarboxylic acid (1-cyano-cyclopropyl)-amide] it is 1.23 nM. The figure for `CO[C@@H]1C[C@H](S(=O)(=O)c2ccc(-c3cnn(CCO)c3)cc2C(F)(F)F)C[C@H]1C(=O)NC1(C#N)CC1` (racemic) [Example 170, (1R,2R,4R) and (1S,2S,4S)-4-{4-[1-(2-Hydroxy-ethyl)-1H-pyrazol-4-yl]-2-trifluoromethyl-benzenesulfonyl}-2-methoxy-cyclopentanecarboxylic acid (1-cyano-cyclopropyl)-amide] is 0.587 nM. The molecule `CO[C@@H]1C[C@H](S(=O)(=O)c2ccc(-c3ccccc3)cc2C(F)(F)F)C[C@H]1C(=O)NC1(C#N)CC1` (racemic) [Example 171, (1R,2R,4R) and (1S,2S,4S)-2-Methoxy-4-(3-trifluoromethyl-biphenyl-4-sulfonyl)-cyclopentanecarboxylic acid (1-cyano-cyclopropyl)-amide] gave an IC50 of 1.2 nM. Molecule `COCCn1cc(-c2ccc(S(=O)(=O)[C@H]3C[C@@H](OC)[C@H](C(=O)NC4(C#N)CC4)C3)c(C(F)(F)F)c2)cn1` (racemic) [Example 172, (1R,2R,4R) and (1S,2S,4S)-2-Methoxy-4-{4-[1-(2-methoxy-ethyl)-1H-pyrazol-4-yl]-2-trifluoromethyl-benzenesulfonyl}-cyclopentanecarboxylic acid (1-cyano-cyclopropyl)-amide] came in with an IC50 of 0.435 nM. The figure for `Cn1cc(-c2ccc(S(=O)(=O)[C@H]3C[C@@H](OC4CCOCC4)[C@H](C(=O)NC4(C#N)CC4)C3)c(C(F)(F)F)c2)cn1` (racemic) [Example 173, (1R,2R,4R) and (1S,2S,4S)-4-[4-(1-Methyl-1H-pyrazol-4-yl)-2-trifluoromethyl-benzenesulfonyl]-2-(tetrahydro-pyran-4-yloxy)-cyclopentanecarboxylic acid (1-cyano-cyclopropyl)-amide] is 0.217 nM; for `Cc1cc(-c2ccc(S(=O)(=O)[C@H]3C[C@@H](OC4CCOCC4)[C@H](C(=O)NC4(C#N)CC4)C3)c(C(F)(F)F)c2)ccn1` (racemic) [Example 174, (1R,2R,4R) and (1S,2S,4S)-4-[4-(2-Methyl-pyridin-4-yl)-2-trifluoromethyl-benzenesulfonyl]-2-(tetrahydro-pyran-4-yloxy)-cyclopentanecarboxylic acid (1-cyano-cyclopropyl)-amide] it is 0.17 nM. Then `N#CC1(NC(=O)[C@@H]2C[C@@H](S(=O)(=O)c3ccccc3C(F)(F)F)C[C@H]2OC2CCOCC2)CC1` (racemic) [Example 175, (1R,2R,4R) and (1S,2S,4S)-2-(Tetrahydro-pyran-4-yloxy)-4-(2-trifluoromethyl-benzenesulfonyl)-cyclopentanecarboxylic acid (1-cyano-cyclopropyl)-amide], with 0.48 nM. Consider `CO[C@@H]1C[C@H](S(=O)(=O)c2ccc(N3CCOCC3)cc2C(F)(F)F)C[C@H]1C(=O)NC1(C#N)CC1` (racemic) [Example 176, (1R,2R,4R) and (1S,2S,4S)-2-Methoxy-4-(4-morpholin-4-yl-2-trifluoromethyl-benzenesulfonyl)-cyclopentanecarboxylic acid (1-cyano-cyclopropyl)-amide], for which the IC50 was found to be 1.47 nM.

On to `CO[C@@H]1C[C@H](S(=O)(=O)c2ccc(N3CCN(C(C)C)CC3)cc2C(F)(F)F)C[C@H]1C(=O)NC1(C#N)CC1` (racemic) [Example 177, (1R,2R,4R) and (1S,2S,4S)-4-[4-(4-Isopropyl-piperazin-1-yl)-2-trifluoromethyl-benzenesulfonyl]-2-methoxy-cyclopentanecarboxylic acid (1-cyano-cyclopropyl)-amide], for which inhibition was half-maximal at 0.923 nM (IC50).

With `CO[C@@H]1C[C@H](S(=O)(=O)c2ccc(N3CCC(F)(F)CC3)cc2C(F)(F)F)C[C@H]1C(=O)NC1(C#N)CC1` (racemic) [Example 178, (1R,2R,4R) and (1S,2S,4S)-4-[4-(4,4-Difluoro-piperidin-1-yl)-2-trifluoromethyl-benzenesulfonyl]-2-methoxy-cyclopentanecarboxylic acid (1-cyano-cyclopropyl)-amide], the IC50 amounted to 0.885 nM. Then `COC(=O)Cn1cc(-c2ccc(S(=O)(=O)[C@H]3C[C@@H](OC)[C@H](C(=O)NC4(C#N)CC4)C3)c(C(F)(F)F)c2)cn1` (racemic) [Example 179, (4-{4-[(1R,3R,4R) and (1S,3S,4S)-3-(1-Cyano-cyclopropylcarbamoyl)-4-methoxy-cyclopentanesulfonyl]-3-trifluoromethyl-phenyl}-pyrazol-1-yl)-acetic acid methyl ester], with 0.3 nM; and `N#CC1(NC(=O)[C@@H]2C[C@@H](S(=O)(=O)c3ccccc3Cl)C[C@H]2OCc2cc(F)c(Cl)cc2Cl)CC1` (racemic) [Example 180, (1R,2R,4R) and (1S,2S,4S)-4-(2-Chlorophenylsulfonyl)-N-(1-cyanocyclopropyl)-2-(2,4-dichloro-5-fluorobenzyloxy)cyclopentanecarboxamide], with 157 nM; and `N#CC1(NC(=O)[C@@H]2C[C@@H](S(=O)(=O)c3ccc(Br)cc3C(F)(F)F)C[C@H]2OC2CCS(=O)(=O)CC2)CC1` (racemic) [Example 181, (1R,2R,4R) and (1S,2S,4S)-4-(4-Bromo-2-trifluoromethyl-benzenesulfonyl)-2-[(tetrahydro-1,1-dioxo-2H-thiopyran-4-yl)oxy]-cyclopentanecarboxylic acid (1-cyano-cyclopropyl)-amide], with 1.32 nM. The figure for `N#CC1(NC(=O)[C@@H]2C[C@@H](S(=O)(=O)c3ccc(Br)cc3C(F)(F)F)C[C@H]2OC2CCC2)CC1` (racemic) [Example 182, (1R,2R,4R) and (1S,2S,4S)-4-(4-Bromo-2-trifluoromethyl-benzenesulfonyl)-2-cyclobutoxy-cyclopentanecarboxylic acid (1-cyano-cyclopropyl)-amide] is 3.8 nM; for `Cc1cc(-c2ccc(S(=O)(=O)[C@H]3C[C@@H](OC4CCS(=O)(=O)CC4)[C@H](C(=O)NC4(C#N)CC4)C3)c(C(F)(F)F)c2)ccn1` (racemic) [Example 183, (1R,2R,4R) and (1S,2S,4S)-2-[(tetrahydro-1,1-dioxo-2H-thiopyran-4-yl)oxy]-4-[4-(2-methyl-pyridin-4-yl)-2-trifluoromethyl-benzenesulfonyl]-cyclopentanecarboxylic acid (1-cyano-cyclopropyl)-amide] it is 0.2 nM.
